Data reported in ChEMBL document CHEMBL4130445, “TNF-α and IL-6 inhibitors: Conjugates of N-substituted indole and aminophenylmorpholin-3-one as anti-inflammatory agents” (Eur J Med Chem, 2017).
pIC50: −log10 of the molar value. Active and inactive are the calls of the source. No cut-off for these calls is given here.

What was measured:
BV-2 [1] = assay: Inhibition of LPS-induced TNFalpha production in mouse BV2 cells assessed as TNFalpha level at 20 uM pre-incubated before LPS stimulation by ELISA (reference value: 142.71%); type: functional; set-up: scale not given: the % may be the effect or the level left
[2] = Cytotoxicity in mouse BV2 cells assessed as cell viability at 10 uM incubated for 48 hrs by MTT assay (reference value: 100%); type: cell-based, BV-2; conditions: read-out: Activity
[3] = Cytotoxicity in mouse BV2 cells assessed as cell viability at 100 uM incubated for 48 hrs by MTT assay (reference value: 100%); type: cell-based, BV-2; conditions: read-out: Activity
BV-2 [4] = assay: Suppression of LPS-induced morphological changes in mouse BV2 cells at 10 uM pre-incubated before LPS stimulation by phase contrast microscopy; type: functional, cell-based
[5] = Cytotoxicity in mouse BV2 cells assessed as cell viability at 0.5 uM incubated for 48 hrs by MTT assay (reference value: 100%); type: cell-based, BV-2; conditions: read-out: Activity
BV-2 [6] = assay: Inhibition of LPS-induced nitric oxide production in mouse BV2 cells assessed as nitric oxide level at 20 uM pre-incubated before LPS stimulation by Griess reagent based assay (reference value: 121.09%); type: functional; set-up: scale not given: the % may be the effect or the level left
BV-2 [7] = assay: Inhibition of LPS-induced TNFalpha production in mouse BV2 cells assessed as TNFalpha level at 10 uM pre-incubated before LPS stimulation by ELISA (reference value: 142.71%); type: functional; set-up: scale not given: the % may be the effect or the level left
BV-2 [8] = assay: Inhibition of LPS-induced IL6 production in mouse BV2 cells at 20 uM pre-incubated before LPS stimulation by ELISA; type: functional
[9] = Cytotoxicity in mouse BV2 cells assessed as cell viability at 40 uM incubated for 48 hrs by MTT assay (reference value: 100%); type: cell-based, BV-2; conditions: read-out: Activity
BV-2 [10] = assay: Inhibition of LPS-induced IL6 production in mouse BV2 cells assessed as IL6 level at 20 uM pre-incubated before LPS stimulation by ELISA (reference value: 146.75%); type: functional; set-up: scale not given: the % may be the effect or the level left
[11] = target: Transcription factor Jun (Mus musculus) (UniProt P05627); assay: Inhibition of LPS-induced AP1 nuclear translocation in mouse BV2 cells pre-incubated before LPS stimulation by immunostaining based confocal laser microscopy; type: cell-based
Chain of Transcription factor Jun (Mus musculus) (P05627 whole entry): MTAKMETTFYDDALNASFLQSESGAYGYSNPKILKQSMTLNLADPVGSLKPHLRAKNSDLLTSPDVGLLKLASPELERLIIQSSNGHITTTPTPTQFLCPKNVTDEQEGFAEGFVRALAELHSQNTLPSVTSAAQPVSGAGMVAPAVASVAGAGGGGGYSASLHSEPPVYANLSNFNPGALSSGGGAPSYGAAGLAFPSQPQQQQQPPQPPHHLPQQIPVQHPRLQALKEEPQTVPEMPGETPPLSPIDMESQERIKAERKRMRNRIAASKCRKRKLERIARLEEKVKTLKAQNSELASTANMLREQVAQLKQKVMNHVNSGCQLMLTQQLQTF

[12] = Cytotoxicity in mouse BV2 cells assessed as cell viability at 20 uM incubated for 48 hrs by MTT assay (reference value: 100%); type: cell-based, BV-2; conditions: read-out: Activity
BV-2 [13] = assay: Inhibition of LPS-induced TNFalpha production in mouse BV2 cells at 20 uM pre-incubated before LPS stimulation by ELISA; type: functional
[14] = target: T1, Prostaglandin G/H synthase 2 (Homo sapiens) (UniProt P35354); assay: Inhibition of COX2 (unknown origin) by immunoassay
T1 sequence (whole entry): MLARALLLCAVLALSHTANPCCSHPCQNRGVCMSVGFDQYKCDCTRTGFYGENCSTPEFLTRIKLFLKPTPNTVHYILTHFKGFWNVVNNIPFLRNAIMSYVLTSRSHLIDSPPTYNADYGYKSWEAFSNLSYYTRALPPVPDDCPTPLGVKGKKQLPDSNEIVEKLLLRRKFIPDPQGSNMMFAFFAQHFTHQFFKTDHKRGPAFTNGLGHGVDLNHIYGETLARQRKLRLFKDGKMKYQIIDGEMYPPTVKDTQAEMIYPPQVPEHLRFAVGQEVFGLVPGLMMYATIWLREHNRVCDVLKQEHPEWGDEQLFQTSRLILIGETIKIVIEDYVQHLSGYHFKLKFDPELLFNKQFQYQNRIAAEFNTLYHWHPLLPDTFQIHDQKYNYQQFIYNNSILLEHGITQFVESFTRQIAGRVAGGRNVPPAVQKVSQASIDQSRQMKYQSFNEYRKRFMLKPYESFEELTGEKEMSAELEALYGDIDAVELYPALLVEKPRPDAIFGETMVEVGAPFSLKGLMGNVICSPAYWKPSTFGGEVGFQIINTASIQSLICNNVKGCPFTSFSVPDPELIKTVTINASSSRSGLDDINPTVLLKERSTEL

[15] = Cytotoxicity in mouse BV2 cells assessed as cell viability at 60 uM incubated for 48 hrs by MTT assay (reference value: 100%); type: cell-based, BV-2; conditions: read-out: Activity
BV-2 [16] = assay: Inhibition of LPS-induced IL6 production in mouse BV2 cells assessed as IL6 level at 10 uM pre-incubated before LPS stimulation by ELISA (reference value: 146.75%); type: functional; set-up: scale not given: the % may be the effect or the level left
BV-2 [17] = assay: Inhibition of LPS-induced MMP2 production production in mouse BV2 cells assessed as MMP2 protein level pre-incubated before LPS stimulation by gelatin zymography (reference value: 105.071%); type: functional; set-up: scale not given: the % may be the effect or the level left
BV-2 [18] = assay: Inhibition of LPS-induced MMP9 production production in mouse BV2 cells assessed as MMP9 protein level pre-incubated before LPS stimulation by gelatin zymography (reference value: 105.113%); type: functional; set-up: scale not given: the % may be the effect or the level left
BV-2 [19] = assay: Inhibition of LPS-induced TNFalpha production in mouse BV2 cells at 10 uM pre-incubated before LPS stimulation by ELISA; type: functional
Mus musculus [20] = organism: Mus musculus; assay: Inhibition of LPS-induced NFkappaB nuclear translocation in mouse BV2 cells pre-incubated before LPS stimulation by immunostaining based confocal laser microscopy; type: cell-based
[21] = Cytotoxicity in mouse BV2 cells assessed as cell viability at 80 uM incubated for 48 hrs by MTT assay (reference value: 100%); type: cell-based, BV-2; conditions: read-out: Activity
BV-2 [22] = assay: Suppression of LPS-induced morphological changes in mouse BV2 cells at 5 uM pre-incubated before LPS stimulation by phase contrast microscopy; type: functional, cell-based
BV-2 [23] = assay: Inhibition of LPS-induced nitric oxide production in mouse BV2 cells assessed as nitric oxide level at 10 uM pre-incubated before LPS stimulation by Griess reagent based assay (reference value: 121.09%); type: functional; set-up: scale not given: the % may be the effect or the level left
[24] = Cytotoxicity in mouse BV2 cells assessed as cell viability at 1 uM incubated for 48 hrs by MTT assay (reference value: 100%); type: cell-based, BV-2; conditions: read-out: Activity
BV-2 [25] = assay: Inhibition of LPS-induced IL6 production in mouse BV2 cells at 10 uM pre-incubated before LPS stimulation by ELISA; type: functional
BV-2 [26] = assay: Cytotoxicity in mouse BV2 cells assessed as reduction in cell viability incubated for 48 hrs by MTT assay; type: cell-based; conditions: BV-2, 48 h
[27] = Cytotoxicity in mouse BV2 cells assessed as cell viability at 15 uM incubated for 48 hrs by MTT assay (reference value: 100%); type: cell-based, BV-2; conditions: read-out: Activity
[28] = Cytotoxicity in mouse BV2 cells assessed as cell viability at 5 uM incubated for 48 hrs by MTT assay (reference value: 100%); type: cell-based, BV-2; conditions: read-out: Activity
Mus musculus [29] = assay: Analgesic activity in Swiss albino mouse model of acetic acid induced writhing assessed as inhibition of pain response at 10 mg/kg, ip dosed 30 mins before acetic acid injection; type: functional
BV-2 [30] = assay: Suppression of LPS-induced morphological changes in mouse BV2 cells at 1 to 20 uM pre-incubated before LPS stimulation by phase contrast microscopy; type: functional, cell-based
BV-2 [31] = assay: Inhibition of LPS-induced TNFalpha production in mouse BV2 cells at 100 uM pre-incubated before LPS stimulation by ELISA; type: functional
BV-2 [32] = assay: Inhibition of LPS-induced MMP9 production production in mouse BV2 cells pre-incubated before LPS stimulation by gelatin zymography; type: functional, cell-based
BV-2 [33] = assay: Inhibition of LPS-induced MMP2 production production in mouse BV2 cells pre-incubated before LPS stimulation by gelatin zymography; type: functional, cell-based
BV-2 [34] = assay: Inhibition of LPS-induced TNFalpha production in mouse BV2 cells at 60 uM pre-incubated before LPS stimulation by ELISA; type: functional

Structure (SMILES) | Activity (BV-2 [1]) | viability at 48 h, 10 µM [2] | viability at 48 h, 100 µM [3] | Activity (BV-2 [4]) | viability at 48 h, 0.5 µM [5] | Activity (BV-2 [6]) | Activity (BV-2 [7]) | viability at 48 h, 40 µM [9] | Activity (BV-2 [10]) | viability at 48 h, 20 µM [12] | inhibition [14] | viability at 48 h, 60 µM [15] | Activity (BV-2 [16]) | viability at 48 h, 80 µM [21] | Activity (BV-2 [22]) | Activity (BV-2 [23]) | viability at 48 h, 1 µM [24] | pIC50 (BV-2 [26]) | viability at 48 h, 15 µM [27] | viability at 48 h, 5 µM [28] | also measured
Cc1ccc(S(=O)(=O)n2cc(/C=N\c3ccc(N4CCOCC4=O)cc3)c3ccccc32)cc1 | 70.48% | 86.4% | 57.4% | Active | 90.9% | 108.2579% | 90.58% | 58.1% | 94.84% | 56.7% | inactive | 56% | 101.2128% | 57.8% | Active | 108.5973% | 92.1% | < 4.00 | 71% | 89.1% | inhibition at 20 µM (BV-2 [8]): 35.4%; inhibition [11]: Active; inhibition at 20 µM (BV-2 [13]): 50.6%; Activity (BV-2 [17]): 96.245%; Activity (BV-2 [18]): 95.906%; inhibition at 10 µM (BV-2 [19]): 36.5%; inhibition (Mus musculus [20]): Active; inhibition at 10 µM (BV-2 [25]): 31%
O=C1COCCN1c1ccc(/N=C\c2cn(Cc3ccccc3)c3ccccc23)cc1 | 183.8555% | 91.3% | 56.2% | Active | 86.6% | 103.8462% | 217.4584% | 69.5% | 181.9833% | 87.8% | inactive | 65% | 265.8219% | 58.7% | Active | 129.638% | 89.3% | < 4.00 | 95.7% | 84% | –
O=C1COCCN1c1ccc(/N=C/c2cn(CCCn3cc(/C=N/c4ccc(N5CCOCC5=O)cc4)c4ccccc43)c3ccccc23)cc1 | 80.53% | 91.3% | 61.4% | Active | 99.9% | 102.1493% | 90.26% | 79.8% | 111.7925% | 95.3% | inactive | 72.4% | 126.5089% | 67.6% | Active | 107.9186% | 97.1% | < 4.00 | 93.1% | 94.1% | inhibition at 20 µM (BV-2 [8]): 23.8%; inhibition at 20 µM (BV-2 [13]): 43.6%; inhibition at 10 µM (BV-2 [19]): 36.8%; inhibition in vivo at 10 mg/kg (Mus musculus [29]): 65.5%; inhibition at 10 µM (BV-2 [25]): 13.8%
O=C1COCCN1c1ccc(/N=C\c2cn(Cc3ccc(F)cc3)c3ccccc23)cc1 | – | 90% | 55.5% | inactive | 102% | – | – | 77.7% | – | 84.2% | inactive | 67.4% | – | 59% | – | – | 87.8% | < 4.00 | 86.1% | 69.3% | Activity (BV-2 [30]): inactive
COc1ccc2c(c1)c(CC(=O)O)c(C)n2C(=O)c1ccc(Cl)cc1 [INDOMETHACIN] | – | – | – | – | – | – | – | – | – | – | – | – | – | – | – | – | – | – | – | – | inhibition at 100 µM (BV-2 [31]): 50%
O=C1COCCN1c1ccc(/N=C\c2c[nH]c3ccccc23)cc1 | 56.03% | 98.5% | 101% | Active | 104% | 104.8643% | 66.71% | 105% | 89.05% | 104% | inactive | 90.8% | 91.1848% | 97.8% | Active | 104.5249% | 105% | < 4.00 | 100% | 101% | inhibition (BV-2 [32]): Active; inhibition (BV-2 [33]): Active; inhibition at 20 µM (BV-2 [8]): 39.3%; inhibition [11]: Active; inhibition at 20 µM (BV-2 [13]): 60.8%; Activity (BV-2 [17]): 94.929%; Activity (BV-2 [18]): 96.273%; inhibition at 10 µM (BV-2 [19]): 53.3%; inhibition (Mus musculus [20]): Active; inhibition at 10 µM (BV-2 [25]): 37.9%
NC(=O)N1C(=O)/C(=C(\O)c2cccs2)c2cc(Cl)ccc21 [TENIDAP] | – | – | – | – | – | – | – | – | – | – | – | – | – | – | – | – | – | – | – | – | inhibition at 60 µM (BV-2 [34]): 67%
O=C1COCCN1c1ccc(/N=C\c2cn(C(=O)c3ccccc3)c3ccccc23)cc1 | 122.9276% | 88.6% | 52.9% | Active | 104% | 98.08% | 199.2439% | 72.6% | 185.4729% | 85.1% | inactive | 57.5% | 258.2615% | 58.4% | Active | 97.74% | 109% | < 4.00 | 86.6% | 87.3% | –
